Measured values from publication PMC6110851, “An Optimized MicroPET Imaging Method for the Distribution and Synergies of Natural Products” (Frontiers in Pharmacology, 2018).

How the values were obtained:
[1] = Safety evaluation during the MicroPET experiment (vital signs, electrocardiograms); format: in vivo, mice
[2] = MicroPET biodistribution of [^18F]-GA in mice; format: in vivo; settings: for time to peak in organ: after injection
Description: The mice were grouped by weight and housed in cages of the climate control room (25°C), with a photoperiod 12:12-h. During feeding, mice were free to access food and water. Mice were fasted for 24 h before the experiment. The mice were anesthetized with 4% isoflurane while preparing for scanning ([Constantinescu et al., 2013b]; [Cui et al., 2017]). Eighteen healthy male Kunming mice, weighing 20 ± 2 g, were divided into three groups, which were control group, once-administered (OA) group and long-term administration (LA) group. In the OA group, 1 h before the administration of [^18F]-GA, the mice were orally treated with PG polysaccharides. In the LA group, the mice were orally given the PG polysaccharides for 7 days, but not before the administration of [^18F]-GA.
Rice received a tail vein injection (8.67 ± 2.14 MBq/μg) of [^18F]-GA and placed in the scanner bed and mouse-imaging room immediately ([Constantinescu et al., 2013b]; [O’Doherty et al., 2017]). Firstly, 2 h PET scanning was performed using an Inveon-dedicated PET scanner. The average delay between injection and starting of PET scanning was 3.5 min. Rice were maintained stable under 4% isoflurane anesthesia throughout scanning. The PET list-mode data were dynamically classified into 23 3D sinograms of span and three ring difference. After Fourier recombination, the data were reconstructed using a 2D ordered-subset expectation maximization algorithm. Random events were excluded before reconstruction. The response of detector is normalized using a component-based approach. All dynamic images were corrected for radioactive decay automatically. The PET images were reconstructed by a cone beam algorithm into 480 × 480 × 632 image arrays. After the reconstruction, images were spatially transformed to match the PET images ([Constantinescu et al., 2013a],[b]).
The reconstruction of the image was performed using the PMOD software (PMOD Technologies). The 3D volumes of interest (VOIs) were drawn manually of the following organs: brain, heart, liver, lungs, kidneys, cortical bone, and gallbladder. The organs were carefully identified and VOIs were drawn as irregular contours on high-resolution PET images obtained from each mouse ([Constantinescu et al., 2013b]; [Garg et al., 2017]). The size of each VOI was less than the actual size of each organ to minimize the effects of PET on adjacent organ spills. The VOIs drawing was verified by a second operator. The VOIs of cortical bone were generated by first using PET image to depict the entire femur bone ([Constantinescu et al., 2013b]). The VOI was transferred to a dynamic PET image and the mean time-activity curve (TAC) of the decay correction was extracted for each target organ ([Constantinescu et al., 2013b]).

[3] = mice, tail vein injection, Time(s) 60
[4] = mice, tail vein injection, Time(s) 180
[5] = mice, tail vein injection, Time(s) 300
[6] = mice, tail vein injection, Time(s) 420
[7] = mice, tail vein injection, Time(s) 660
[8] = mice, tail vein injection, Time(s) 780
[9] = mice, tail vein injection, Time(s) 900
[10] = mice, tail vein injection, Time(s) 1020
[11] = mice, tail vein injection, Time(s) 1140
[12] = mice, tail vein injection, Time(s) 1350
[13] = mice, tail vein injection, Time(s) 1650
[14] = mice, tail vein injection, Time(s) 1950
[15] = mice, tail vein injection, Time(s) 2250
[16] = mice, tail vein injection, Time(s) 2700
[17] = mice, tail vein injection, Time(s) 3300
[18] = mice, tail vein injection, Time(s) 3900
[19] = mice, tail vein injection, Time(s) 4500
[20] = mice, tail vein injection, Time(s) 5100
[21] = mice, tail vein injection, Time(s) 5700
[22] = mice, tail vein injection, Time(s) 6300
[23] = mice, tail vein injection, Time(s) 6900

CC1(C)[C@@H](O)CC[C@]2(C)[C@H]3C(=O)C=C4[C@@H]5C[C@@](C)(C(=O)NCCCC[18F])CC[C@]5(C)CC[C@@]4(C)[C@]3(C)CC[C@@H]12 [[^18F]-GA, [^18F]-Glycyrrhetinic acid]
change in vital signs or electrocardiograms [1]: no change in vital signs or electrocardiograms significantly | organ of highest uptake ([2]; all mice): highest uptake was found in the liver | time to peak in organ ([2]; gallbladder, mice, maintained on the peak): 30 min | time to peak in organ ([2]; heart, lung, and kidney, mice): immediately reached a peak | time to peak in organ ([2]; liver, mice): 7 min | brain concentrations ([2]; mice, MicroPET 3-130 min): consistently low | route of excretion of radioactivity ([2]; mice, radiotracer found in the gallbladder): excreted via the biliary | Organs (%ID/g) Brain [2, 3]: 1.19 %ID/g | Organs (%ID/g) Gallbladder [2, 3]: 11.19 %ID/g | Organs (%ID/g) Heart [2, 3]: 12.13 %ID/g | Organs (%ID/g) Kidney [2, 3]: 9.67 %ID/g | Organs (%ID/g) Liver [2, 3]: 13.03 %ID/g | Organs (%ID/g) Brain [2, 4]: 0.79 %ID/g | Organs (%ID/g) Gallbladder [2, 4]: 14.59 %ID/g | Organs (%ID/g) Heart [2, 4]: 6.52 %ID/g | Organs (%ID/g) Kidney [2, 4]: 8.98 %ID/g | Organs (%ID/g) Liver [2, 4]: 17.00 %ID/g | Organs (%ID/g) Brain [2, 5]: 0.73 %ID/g | Organs (%ID/g) Gallbladder [2, 5]: 19.88 %ID/g | Organs (%ID/g) Heart [2, 5]: 4.75 %ID/g | Organs (%ID/g) Kidney [2, 5]: 7.13 %ID/g | Organs (%ID/g) Liver [2, 5]: 16.13 %ID/g | Organs (%ID/g) Heart [2, 6]: 4.07 %ID/g | Organs (%ID/g) Kidney [2, 6]: 6.26 %ID/g | Organs (%ID/g) Liver [2, 6]: 14.94 %ID/g | Organs (%ID/g) Brain [2, 7]: 0.58 %ID/g | Organs (%ID/g) Gallbladder [2, 7]: 26.93 %ID/g | Organs (%ID/g) Heart [2, 7]: 3.50 %ID/g | Organs (%ID/g) Kidney [2, 7]: 5.00 %ID/g | Organs (%ID/g) Liver [2, 7]: 12.33 %ID/g | Organs (%ID/g) Lung [2, 7]: 2.45 %ID/g | Organs (%ID/g) Brain [2, 8]: 0.61 %ID/g | Organs (%ID/g) Gallbladder [2, 8]: 29.01 %ID/g | Organs (%ID/g) Heart [2, 8]: 3.33 %ID/g | Organs (%ID/g) Kidney [2, 8]: 4.73 %ID/g | Organs (%ID/g) Liver [2, 8]: 11.32 %ID/g | Organs (%ID/g) Brain [2, 9]: 0.54 %ID/g | Organs (%ID/g) Gallbladder [2, 9]: 30.51 %ID/g | Organs (%ID/g) Kidney [2, 9]: 4.52 %ID/g | Organs (%ID/g) Liver [2, 9]: 10.43 %ID/g | Organs (%ID/g) Brain [2, 10]: 0.56 %ID/g | Organs (%ID/g) Gallbladder [2, 10]: 33.20 %ID/g | Organs (%ID/g) Heart [2, 10]: 3.03 %ID/g | Organs (%ID/g) Kidney [2, 10]: 4.23 %ID/g | Organs (%ID/g) Liver [2, 10]: 9.66 %ID/g | Organs (%ID/g) Brain [2, 11]: 0.52 %ID/g | Organs (%ID/g) Gallbladder [2, 11]: 34.49 %ID/g | Organs (%ID/g) Heart [2, 11]: 2.92 %ID/g | Organs (%ID/g) Kidney [2, 11]: 4.04 %ID/g | Organs (%ID/g) Liver [2, 11]: 9.05 %ID/g | Organs (%ID/g) Brain [2, 12]: 0.49 %ID/g | Organs (%ID/g) Gallbladder [2, 12]: 36.96 %ID/g | Organs (%ID/g) Kidney [2, 12]: 3.71 %ID/g | Organs (%ID/g) Liver [2, 12]: 8.34 %ID/g | Organs (%ID/g) Brain [2, 13]: 0.41 %ID/g | Organs (%ID/g) Gallbladder [2, 13]: 40.92 %ID/g | Organs (%ID/g) Heart [2, 13]: 2.67 %ID/g | Organs (%ID/g) Kidney [2, 13]: 3.30 %ID/g | Organs (%ID/g) Liver [2, 13]: 7.55 %ID/g | Organs (%ID/g) Brain [2, 14]: 0.42 %ID/g | Organs (%ID/g) Gallbladder [2, 14]: 42.68 %ID/g | Organs (%ID/g) Heart [2, 14]: 2.64 %ID/g | Organs (%ID/g) Liver [2, 14]: 6.96 %ID/g | Organs (%ID/g) Brain [2, 15]: 0.39 %ID/g | Organs (%ID/g) Gallbladder [2, 15]: 44.48 %ID/g | Organs (%ID/g) Heart [2, 15]: 2.82 %ID/g | Organs (%ID/g) Kidney [2, 15]: 2.79 %ID/g | Organs (%ID/g) Liver [2, 15]: 6.50 %ID/g | Organs (%ID/g) Brain [2, 16]: 0.42 %ID/g | Organs (%ID/g) Gallbladder [2, 16]: 43.79 %ID/g | Organs (%ID/g) Heart [2, 16]: 2.37 %ID/g | Organs (%ID/g) Kidney [2, 16]: 2.52 %ID/g | Organs (%ID/g) Liver [2, 16]: 5.90 %ID/g | Organs (%ID/g) Brain [2, 17]: 0.37 %ID/g | Organs (%ID/g) Gallbladder [2, 17]: 45.86 %ID/g | Organs (%ID/g) Heart [2, 17]: 2.43 %ID/g | Organs (%ID/g) Kidney [2, 17]: 2.22 %ID/g | Organs (%ID/g) Liver [2, 17]: 5.27 %ID/g | Organs (%ID/g) Brain [2, 18]: 0.37 %ID/g | Organs (%ID/g) Gallbladder [2, 18]: 46.86 %ID/g | Organs (%ID/g) Heart [2, 18]: 2.63 %ID/g | Organs (%ID/g) Liver [2, 18]: 4.83 %ID/g | Organs (%ID/g) Brain [2, 19]: 0.45 %ID/g | Organs (%ID/g) Gallbladder [2, 19]: 41.98 %ID/g | Organs (%ID/g) Heart [2, 19]: 2.11 %ID/g | Organs (%ID/g) Kidney [2, 19]: 1.92 %ID/g | Organs (%ID/g) Liver [2, 19]: 4.51 %ID/g | Organs (%ID/g) Brain [2, 20]: 0.38 %ID/g | Organs (%ID/g) Gallbladder [2, 20]: 39.31 %ID/g | Organs (%ID/g) Heart [2, 20]: 2.28 %ID/g | Organs (%ID/g) Kidney [2, 20]: 1.82 %ID/g | Organs (%ID/g) Liver [2, 20]: 4.27 %ID/g | Organs (%ID/g) Brain [2, 21]: 0.41 %ID/g | Organs (%ID/g) Gallbladder [2, 21]: 36.96 %ID/g | Organs (%ID/g) Heart [2, 21]: 1.96 %ID/g | Organs (%ID/g) Liver [2, 21]: 3.90 %ID/g | Organs (%ID/g) Brain [2, 22]: 0.46 %ID/g | Organs (%ID/g) Gallbladder [2, 22]: 39.06 %ID/g | Organs (%ID/g) Heart [2, 22]: 2.18 %ID/g | Organs (%ID/g) Kidney [2, 22]: 1.65 %ID/g | Organs (%ID/g) Liver [2, 22]: 3.82 %ID/g | Organs (%ID/g) Brain [2, 23]: 0.48 %ID/g | Organs (%ID/g) Gallbladder [2, 23]: 41.97 %ID/g | Organs (%ID/g) Heart [2, 23]: 2.64 %ID/g | Organs (%ID/g) Kidney [2, 23]: 1.59 %ID/g | Organs (%ID/g) Liver [2, 23]: 3.64 %ID/g
